Data on ten compounds can be found in ChEMBL document CHEMBL1201862, “PubChem BioAssay data set” (2004).

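Results reflect a 48-hour exposure of cells in 96-well plates to compound at five concentrations. The concentration for 50% growth inhibition is given as GI50.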 Active and inactive are the calls of the source. No stated cut-off is given here; in the data, active = GI50 up to about 1.1 µM and inactive = higher.

Test systems include HOP-18; M19-MEL; SNB-78; XF498; DLD-1; KM-20L2; LXFL 529; BT-549.
Common to all, as to experiment: NCI tumour cell line growth inhibition, 48 h

`CC1=C(O)C(=O)[C@@H]2O[C@@H]2C1=O`: the GI50 was 12.5 µM (inactive) with HOP-18; 11.2 µM (inactive) with M19-MEL; 15.6 µM (inactive) with SNB-78; 10.4 µM (inactive) with XF498; 7.28 µM (inactive) in the experiment on DLD-1; 17.2 µM (inactive) in the experiment with KM-20L2.
Take `N#CC(OC1OC(COC2OC(CO)C(O)C(O)C2O)C(O)C(O)C1O)c1ccccc1` (stereo not drawn): the GI50 in the experiment with HOP-18, in the experiment with M19-MEL, in the experiment on SNB-78, in the experiment on XF498, in the experiment on DLD-1 and with KM-20L2 was > 225 µM (inactive) each time.
As for `O=C(CCc1nnc(S)[nH]1)Nc1cccc(C(F)(F)F)c1`, the GI50 in the experiment on HOP-18, in the experiment on SNB-78, in the experiment with XF498, with DLD-1, with KM-20L2 and in the experiment with LXFL 529 was > 100 µM (inactive) in each case.
On to `COC(c1cccc(C(O)(C(F)(F)F)C(F)(F)F)c1)(C(F)(F)F)C(F)(F)F`, for which the GI50 with HOP-18 is 18.2 µM (inactive); in the experiment on M19-MEL it was 16.1 µM (inactive); in the experiment with XF498, 15 µM (inactive); with DLD-1 it was 20.3 µM (inactive); in the experiment on KM-20L2 it was 16.9 µM (inactive); with LXFL 529 it was 17.5 µM (inactive).
For the compound `O=C1/C(=C/c2ccccc2)CN(C(=O)Oc2ccc(Cl)cc2)C/C1=C\c1ccccc1`, the GI50 in the experiment on HOP-18 was 13.1 µM (inactive); with M19-MEL it was 1.12 µM (active); in the experiment on SNB-78, 2.96 µM (inactive); with XF498, 2.29 µM (inactive); in the experiment on DLD-1 it was 1.11 µM (active); with KM-20L2 it was 2.71 µM (inactive). Also, the GI50 with LXFL 529 is 1.72 µM (inactive).
For the compound `C[n+]1ccn2c3nc4ccccc4nc3c([O-])c(C#N)c21`, the GI50 in the experiment with HOP-18 is 84.7 µM (inactive); in the experiment on M19-MEL, < 0.01 µM (active); with SNB-78, > 100 µM (inactive); with BT-549, > 100 µM (inactive); in the experiment with XF498 it was > 100 µM (inactive); in the experiment with DLD-1 it was < 0.01 µM (active). Further, the GI50 in the experiment on LXFL 529 is > 100 µM (inactive).
As for `Cc1ccccc1NC(=O)CSc1nnc(-c2ccc(/N=C\c3ccc(Cl)cc3)cc2)o1`, the GI50 in the experiment on HOP-18, with M19-MEL, in the experiment with SNB-78, in the experiment with XF498, with KM-20L2 and in the experiment with LXFL 529 was > 100 µM (inactive) each time.
Turning to `C=C1CC(OC)(C(O)C(=O)N[C@H]2OCO[C@H]3C2O[C@H](C[C@H](O)COC)C(C)(C)C3OC)O[C@H](C)[C@@H]1C` (stereo partly drawn), the GI50 in the experiment on HOP-18, in the experiment with M19-MEL, in the experiment with SNB-78, with XF498, in the experiment with DLD-1 and in the experiment with KM-20L2 was < 0.00773 µM (active) in each case.
Turning to `CSCC[C@@H](NC(=O)[C@H](CC(C)C)NC(=O)C(Cc1cnc[nH]1)NC(=O)CNC(=O)[C@@H](NC(=O)[C@H](C)NC(=O)[C@H](Cc1c[nH]c2ccccc12)NC(=O)[C@H](CCC(N)=O)NC(=O)[C@@H](N)CC(N)=O)C(C)C)C(N)=O` (stereo partly drawn), the GI50 with HOP-18, in the experiment on M19-MEL, in the experiment with SNB-78, with XF498, in the experiment on DLD-1 and in the experiment with KM-20L2 was > 100 µM (inactive) in each case.
Turning to `CCC(COC(=O)CC[C@@H](NC(=O)C(C)NC(=O)C(C)OC1C(O)C(CO)OC(OCc2ccccc2)C1NC(C)=O)C(N)=O)NC1c2ccccc2Nc2cccc([N+](=O)[O-])c21` (stereo partly drawn), the GI50 was 69.2 µM (inactive) with HOP-18; > 100 µM (inactive) in the experiment on M19-MEL; > 100 µM (inactive) with SNB-78; > 100 µM (inactive) with XF498; > 100 µM (inactive) in the experiment with DLD-1; > 100 µM (inactive) with KM-20L2. For the same compound, the GI50 in the experiment with LXFL 529 is 41.8 µM (inactive).
